According to US12398141B2 (SHANGHAI SYNERGY PHARMACEUTICAL SCIENCES CO., LTD, priority 2019, dated 2025):

Experiments:
[1] = Pharmacokinetic test after intragastric administration; type: in vivo; settings: Sprague-Dawley, mouse, plasma, po, SD mice, 5 mg/kg intragastric; for AUC(0-t): read-out: Area under the curve (AUC0-24, ng/ml · h); for Cmax: read-out: Plasma concentration (Cmax, ng/ml); for half-life: read-out: half life (T1/2, h) (converted)
Protocol: Drug concentrations of compounds H01, H07, H11, H12, H14, H15, H22, H25, H29, H30, H33, H39 and H44 intragastrically administrated in plasma by using LC/MS/MS method at various time points were determined by using Sprague-Dawley (SD) […], aged 7-8 weeks and weighing […] as test animals. Pharmacokinetic behavior of the compounds of the invention in […] was studied and its pharmacokinetic characteristics were evaluated.
A certain amount of compounds was taken and dissolved in 50% PEG400/water to prepare a uniform solution.
Mice were administered intragastrically with the above compounds with a dosage of 5 mg/kg. Blood (0.2 ml) was taken from orbits before administration and 0.083 h, 0.25 h, 0.5 h, 1.0 h, 2.0 h, 4.0 h, 6.0 h, 8.0 h, 12.0 h and 24.0 h after administration. The blood was placed in anticoagulant tubes containing dipotassium ethylene glycol diethyl ether diamine tetraacetic acid, centrifugated at 6000 rpm at 4° C. for 10 minutes to separate plasma and saved at −80° C.
50 μL plasma at various time was taken and 150 μL acetonitrile solution containing internal standard tolbutamide (Sigma, USA) was added, mixed and stirred for 5 minutes. After centrifugation for 5 minutes at 12,000 rpm, 100 μL supernatant was taken, mixed with 200 μL water, following by sample injection and analysis.
Liquid chromatogram system was LC-20AD UFLC High Performance Liquid Chromatography system. Mass spectrum system was AB Sciex API4000 triple quadrupole mass spectrometer equipped with Electron Spray Ionization (ESI) (Applied Biosystems, Canada). A software for controlling liquid chromatography-mass spectrometry and quantitative analysis was Anna Rust 1.6 (Applied Biosystems, Canada). Pharmacokinetic parameters were analyzed by WinNonlin (version 5.2, Pharsight, Mountain View, […]) non-compartment model.
The test compound was dissolved in dimethyl sulfoxide to prepare a stock solution with a concentration of 1 mg/mL. The solution was diluted with 50% acetonitrile to obtain a series of standard working solutions with concentrations of 10 μg/mL, 3 μg/mL, 1 μg/mL, 0.3 μg/mL, 0.1 μg/mL, 0.03 μg/mL and 0.01 μg/mL, and a series of standard quality control solutions with concentrations of 8 μg/mL, 0.5 μg/mL, 0.03 μg/mL. 5 μL standard solution was mixed with 45 μL blank plasma substrate uniformly to obtain standard solutions of each concentration of a standard curve (1000 ng/mL, 500 ng/mL, 200 ng/mL, 100 ng/mL, 10 ng/mL, 5 ng/mL, 2 and 1 ng/mL) and quality control solutions (plasma samples: 800 ng/mL, 50 and 3 ng/mL).
Internal standard tolbutamide solid powder was dissolved in dimethyl sulfoxide to prepare a 1 mg/mL stock solution. The stock solution was diluted with 100% acetonitrile to obtain 200 ng/mL solution as a protein precipitation solution.

[2] = test system: male ICR mice; test: Carrageenan-induced paw swelling in mice; type: in vivo; settings: 10 mg/kg intragastric; for Paw swelling_0.5 h (%): 0.5 h; for Paw swelling rate_1 h (%): 1 h; for Paw swelling rate_2 h (%): 2 h
Summary of the method: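 Compounds in 4% Tween 80/0.5% HPMC given intragastrically at 10 mg/kg (10 ml/kg); 0.5 h later 20 μL 1% carrageenan injected into the plantar. Paw volume measured before and at 0.5, 1 and 2 h; swelling rate expressed relative to baseline paw volume.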

[3] = test system: TF-1 cell; test: TF-1 cell proliferation test; type: cell-based; settings: Homo sapiens, 72 h
[4] = test system: Blast T cell; test: Cell proliferation test of IL-2 stimulated Blast T cell; type: cell-based; settings: Homo sapiens; IL-2 stimulated Blast T cell proliferation, 72 hours

SMILES | AUC(0-t) [1] [ng·h/mL] | Cmax [1] [ng/mL] | half-life [1] [h] | Paw swelling_0.5 h (%) [2] [%] | Paw swelling rate_1 h (%) [2] [%] | Paw swelling rate_2 h (%) [2] [%] | IC50 [3] [µM] | IC50 [4] [µM]
CN(c1c(C#N)cnc2[nH]ccc12)[C@H]1C[C@@H]2CN(C(=O)Nc3ccc(Cl)c(C(F)(F)F)c3)C[C@@H]2C1 [Compound H25, (3aR,5s,6aS)-N-(4-chloro-3-(trifluoromethyl)phenyl)-5-((5-cyano-1H-pyrrolo[2,3-b]pyridin-4-yl)(methyl)amino)hexahydrocyclopentadiene[c]pyrrole-2(1H)-carboxamide] | 1270 ± 231 | 501 ± 17 | 4.67 ± 0.23 | 37.45 ± 4.37 | 44.64 ± 3.68 | 44.66 ± 5.58 | 0.73 | 0.02
N#Cc1cnc2[nH]ccc2c1N1CC2CN(C(=O)NCC(F)(F)F)CC21 (stereo not shown) [Compound H39, 6-(5-cyano-1H-pyrrolo[2,3-b]pyridin-4-yl)-N-(2,2,2-trifluoroethyl)-3,6-diazabicyclo[3.2.0]heptane-3-carboxamide] | 1560 ± 230 | 574 ± 64 | 4.65 ± 0.15 | 30.45 ± 1.74 | 26.44 ± 3.68 | 38.99 ± 5.58 | 0.69 | 0.015
